Laboratory results taken from the supplement of paper PMC10307832.

Experiments:
Test in all cases: relative viability (nuclei count vs DMSO), 5 days (fraction); higher = more cells survive
Obatoclax + Crizotinib = compound: COC1=CC(c2cc3ccccc3[nH]2)=N/C1=C\c1[nH]c(C)cc1C [Obatoclax] + C[C@@H](Oc1cc(-c2cnn(C3CCNCC3)c2)cnc1N)c1c(Cl)ccc(F)c1Cl [Crizotinib] (partner 1 µM)
How it was run: (§1)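 Relative viability is defined as nuclei in treated wells over nuclei in vehicle wells. Duplicate plates were run and medians reported. Lung cancer cell lines in 1536-well plates were dosed by pin tool one day after seeding, with one drug or with a fixed anchor-drug dose plus five library-drug doses (not always all listed) in √10 steps, and nuclei were counted after 5 days.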

Obatoclax + Trametinib = compound: COC1=CC(c2cc3ccccc3[nH]2)=N/C1=C\c1[nH]c(C)cc1C [Obatoclax] + CC(=O)Nc1cccc(-n2c(=O)n(C3CC3)c(=O)c3c(Nc4ccc(I)cc4F)n(C)c(=O)c(C)c32)c1 [Trametinib] (partner 0.02 µM)
How it was run: as §1

[1] = compound: CC1=CC(=NN1)NC2=CC(=NC(=N2)/C=C/C3=CC=CC=C3)N4CCN(CC4)C + CC(C)C[C@H](NC(=O)[C@H](Cc1ccccc1)NC(=O)c1cnccn1)B(O)O [Bortezomib] (partner 0.002 µM)
How it was run: as §1

Obatoclax + AZD7762 = compound: COC1=CC(c2cc3ccccc3[nH]2)=N/C1=C\c1[nH]c(C)cc1C [Obatoclax] + NC(=O)Nc1cc(-c2cccc(F)c2)sc1C(=O)N[C@H]1CCCNC1 [AZD7762] (partner 0.2 µM)
How it was run: as §1

Cell Line	relative viability (Obatoclax + Crizotinib; first compound 0.01 µM)	relative viability (Obatoclax + Crizotinib; first compound 0.03162 µM)	relative viability (Obatoclax + Crizotinib; first compound 0.1 µM)	relative viability (Obatoclax + Crizotinib; first compound 0.3162 µM)	relative viability (Obatoclax + Crizotinib; first compound 1 µM)	relative viability (Obatoclax + Trametinib; first compound 0.01 µM)	relative viability (Obatoclax + Trametinib; first compound 0.03162 µM)	relative viability (Obatoclax + Trametinib; first compound 0.1 µM)	relative viability (Obatoclax + Trametinib; first compound 0.3162 µM)	relative viability (Obatoclax + Trametinib; first compound 1 µM)	relative viability ([1]; first compound 0.08 µM)	relative viability ([1]; first compound 0.253 µM)	relative viability ([1]; first compound 0.8 µM)	relative viability ([1]; first compound 2.53 µM)	relative viability ([1]; first compound 8 µM)	relative viability (Obatoclax + AZD7762; first compound 0.01 µM)	relative viability (Obatoclax + AZD7762; first compound 0.03162 µM)	relative viability (Obatoclax + AZD7762; first compound 0.1 µM)	relative viability (Obatoclax + AZD7762; first compound 0.3162 µM)	relative viability (Obatoclax + AZD7762; first compound 1 µM)
201T	1.01	1.03	1.04	0.996	1.06	0.713	0.737	0.776	0.722	0.752	1.11	1.17	1.06	1.02	1.01	0.608	0.601	0.579	0.614	0.702
A549	0.75	0.799	0.752	0.664	0.0778															
A-427	0.958	0.792	0.802	0.999	0.968	0.785	0.689	0.849	0.729	0.621	1.1	1.06	1.08	0.635	0.361	0.746	0.757	0.496	0.467	0.441
ABC-1	1.2	1.18	1.6	1.06	0.723						0.418	0.268	0.303	0.257	0.205	0.639	0.749		0.817	0.839
BEN	0.897	0.841	0.853	0.75	0.817	1.01	1.01	0.861	0.944	1.03	0.854	0.992	0.831	0.523	0.197	0.762	0.607	0.544	0.734	0.704
CAL-12T	0.511	0.797	0.492	0.382	0.105	0.337	0.431	0.47	0.246	0.14	0.979	0.952	0.645	0.268	0.164	0.616	0.554	0.531	0.518	0.294
COR-L23	0.632	0.696	0.635	0.212	0.174	0.541	0.607	0.44	0.252	0.194	0.972	1.29	1	0.196	0.0895					
COR-L 105	0.802	0.959	1	0.51	0.522	0.44	0.434	0.493	0.4	0.373	0.744	0.988	0.76	0.263	0.231					
Calu-6	0.778	0.769	0.736	0.739	0.137						0.912	0.947	0.764	0.174	0.13					
ChaGo-K-1	1.26	0.996		1.15	1.02	0.951	0.846	0.869	0.894	0.878	0.994	1.2	1.15	0.285	0.241	0.892	0.88	0.831	0.881	0.914
